One series relates to A549. Description: cells. To be noted: Homo sapiens, A549, 96 h.
Series [1] addresses Tumour suppressor protein p53/Mdm4 (Homo sapiens, UniProt O15151). In words: Inhibition of MDM4/p53 (unknown origin) interaction by fluorescence polarization assay. It is filed as protein assay. A general note: Fluorescence polarisation rises when a labelled molecule tumbles more slowly, as on binding a larger partner.
A further series concerns HCT-116. In words: cells. The settings on record: Homo sapiens, HCT-116, 96 h.
Series [2] can be described thus: Antiproliferative activity against HEK293 cells incubated for 4 days by CCK8 assay. To be noted: human. Type of series: toxicity, cell-based. In general terms: Tetrazolium dyes change colour on reduction, which living cells bring about.
In series [3] the test system is MOLM-13. In words: cells. To be noted: Homo sapiens, MOLM-13, 48 h.
The test system of the next series is HeLa. Description: cells. The settings on record: Homo sapiens, 96 h.
A further series concerns SW480. In words: cells. To be noted: Homo sapiens, SW480, 96 h.
The nature of series [4]: Selectivity index, ratio of IC50 for HEK293 cells to IC50 for human HeLa cells. Type of series: toxicity. The settings on record: HEK293 cells versus HeLa cells, read-out: Ratio IC50.
Series [5] concerns the target Cellular tumor antigen p53 (Homo sapiens) (UniProt P04637). Description: Activation of p53 pathway in human MOLM-13 cells assessed as increase in BAX mRNA level incubated for 24 hrs by qPCR analysis. Type of series: cell-based. To be noted: filed as activator, dose 0.038-0.6 µM.
Series [6] deals with MOLM-13. Description: Induction of apoptosis in human MOLM-13 cells assessed as increase in PARP cleavage at 0.15 to 0.6 uM incubated for 24 hrs by Western blot analysis. Type of series: functional, cell-based. The settings on record: dose 0.15-0.6 µM. In general terms: Immunoblotting shows a protein as a band on a membrane.
Series [7] deals with Cellular tumor antigen p53 (Homo sapiens) (UniProt P04637). Description: Activation of p53 pathway in human MOLM-13 cells assessed as increase in PUMA mRNA level incubated for 24 hrs by qPCR analysis. The settings on record: filed as activator, dose 0.038-0.6 µM. Type of series: cell-based.
Series [8] in a line: Selectivity index, ratio of IC50 for HEK293 cells to IC50 for human A549 cells. It is filed as toxicity. The settings on record: HEK293 cells versus A549 cells, read-out: Ratio IC50.
In series [9] the target is Cellular tumor antigen p53 (Homo sapiens) (UniProt P04637). Description: Activation of p53 pathway in human MOLM-13 cells assessed as increase in p21 mRNA level incubated for 24 hrs by qPCR analysis. Type of series: cell-based. To be noted: filed as activator, dose 0.038-0.6 µM.
Series [10] addresses Tumour suppressor p53/oncoprotein Mdm2 (Homo sapiens, UniProt Q00987). In words: Inhibition of MDM2/p53 (unknown origin) interaction by fluorescence polarization assay. It is filed as protein assay.
For series [11], the target named is Cellular tumor antigen p53 (Homo sapiens) (UniProt P04637). In words: Activation of p53 pathway in human MOLM-13 cells assessed as increase in p21 level incubated for 24 hrs by Western blot analysis. It is filed as cell-based. To be noted: filed as activator, dose 0.038-0.6 µM.
Series [12] shares this target. In words: Activation of p53 pathway in human MOLM-13 cells assessed as increase in MDM2 level incubated for 24 hrs by Western blot analysis. It is filed as cell-based. The settings on record: filed as activator, dose 0.038-0.6 µM.
The target is the same in series [13]. In words: Activation of p53 pathway in human MOLM-13 cells assessed as increase in p53 level incubated for 24 hrs by Western blot analysis. Type of series: cell-based. The settings on record: filed as activator, dose 0.038-0.6 µM.
Series [14] in a line: Selectivity index, ratio of IC50 for HEK293 cells to IC50 for human SW480 cells.
Series [15] concerns the target Cellular tumor antigen p53 (Homo sapiens) (UniProt P04637). In words: Activation of p53 pathway in human MOLM-13 cells assessed as increase in MDM2 mRNA level incubated for 24 hrs by qPCR analysis. It is filed as cell-based. To be noted: filed as activator, dose 0.038-0.6 µM.
The subject of series [16] is MOLM-13. Description: Induction of apoptosis in human MOLM-13 cells assessed as increase in caspase-3 level at 0.15 to 0.6 uM incubated for 24 hrs by Western blot analysis. The settings on record: dose 0.15-0.6 µM. It is filed as functional, cell-based.
The test system of series [17] is MOLM-13. Description: Induction of apoptosis in human MOLM-13 cells at 0.375 to 6 uM incubated for 24 hrs by Western blot analysis. Type of series: functional, cell-based. To be noted: dose 0.375-6 µM.

Here are results for 3 compounds from ChEMBL document CHEMBL5512651, “Synthesis and biological evaluation of 4-imidazolidinone-containing compounds as potent inhibitors of the MDM2/p53 interaction” (Eur J Med Chem, 2024).

The source made the active and inactive calls. The rule behind the calls is not given here.

In general, IC50 refers to the midpoint of a concentration-inhibition curve. Higher therefore signals weaker potency. One may read the Ki as the dissociation constant of the complex between target and ligand, obtained from inhibition or displacement. A higher Ki goes with weaker binding.

Chain of Cellular tumor antigen p53 (Homo sapiens) (P04637 whole entry, looked up): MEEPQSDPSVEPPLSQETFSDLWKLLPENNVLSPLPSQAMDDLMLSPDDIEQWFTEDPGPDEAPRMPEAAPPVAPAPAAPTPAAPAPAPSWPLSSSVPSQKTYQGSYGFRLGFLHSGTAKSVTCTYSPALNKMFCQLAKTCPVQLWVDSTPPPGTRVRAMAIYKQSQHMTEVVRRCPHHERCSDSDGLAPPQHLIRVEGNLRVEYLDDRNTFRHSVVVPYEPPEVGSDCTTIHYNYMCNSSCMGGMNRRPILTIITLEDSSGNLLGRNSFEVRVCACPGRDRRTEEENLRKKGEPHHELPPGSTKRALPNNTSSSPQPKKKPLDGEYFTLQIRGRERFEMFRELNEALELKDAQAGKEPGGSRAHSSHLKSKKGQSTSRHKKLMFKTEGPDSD
Chain of Tumour suppressor protein p53/Mdm4 (P04637 whole entry): as the sequence (P04637 whole entry, looked up) above
Chain of Tumour suppressor protein p53/Mdm4 (O15151 whole entry): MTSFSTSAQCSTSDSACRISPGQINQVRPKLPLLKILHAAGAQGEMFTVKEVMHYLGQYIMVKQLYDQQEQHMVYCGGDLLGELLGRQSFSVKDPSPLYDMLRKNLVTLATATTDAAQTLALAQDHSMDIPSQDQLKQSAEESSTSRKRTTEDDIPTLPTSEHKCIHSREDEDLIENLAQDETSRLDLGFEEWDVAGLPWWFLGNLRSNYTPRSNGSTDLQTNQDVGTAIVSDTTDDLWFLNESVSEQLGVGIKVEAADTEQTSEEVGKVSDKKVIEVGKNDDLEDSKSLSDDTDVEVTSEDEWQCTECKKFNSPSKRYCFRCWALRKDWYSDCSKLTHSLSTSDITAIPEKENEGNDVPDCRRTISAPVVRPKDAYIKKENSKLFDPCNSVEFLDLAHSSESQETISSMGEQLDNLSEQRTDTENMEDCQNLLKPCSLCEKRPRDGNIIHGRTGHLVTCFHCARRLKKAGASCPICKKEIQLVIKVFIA
Chain of Tumour suppressor p53/oncoprotein Mdm2 (P04637 whole entry): as the sequence (P04637 whole entry, looked up) above
Chain of Tumour suppressor p53/oncoprotein Mdm2 (Q00987 whole entry): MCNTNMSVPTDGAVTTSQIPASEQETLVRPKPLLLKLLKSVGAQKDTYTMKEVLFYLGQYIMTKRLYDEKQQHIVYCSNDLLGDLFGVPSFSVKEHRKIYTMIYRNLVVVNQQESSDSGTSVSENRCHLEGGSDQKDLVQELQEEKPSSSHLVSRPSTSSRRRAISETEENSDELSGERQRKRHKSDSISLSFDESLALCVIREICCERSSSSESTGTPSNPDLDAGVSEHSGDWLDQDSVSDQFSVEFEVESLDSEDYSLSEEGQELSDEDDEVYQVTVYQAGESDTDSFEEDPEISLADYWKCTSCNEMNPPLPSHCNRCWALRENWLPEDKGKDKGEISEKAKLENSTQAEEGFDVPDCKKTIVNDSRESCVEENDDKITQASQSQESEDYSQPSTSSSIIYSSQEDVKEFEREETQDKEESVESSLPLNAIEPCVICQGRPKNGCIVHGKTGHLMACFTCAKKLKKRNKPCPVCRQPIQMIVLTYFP

For `COc1cc(NC(=O)[C@@H]2N[C@@H](CC(C)(C)C)[C@](C#N)(c3ccc(Cl)cc3F)[C@H]2c2cccc(Cl)c2F)ccc1C(=O)O`, the IC50 came to 373 nM in the series with A549; 104 nM with HCT-116; 24.8 nM in the series on MOLM-13 [3]; 13200 nM in the series with HeLa; 5460 nM in the series on SW480. This compound also displayed a Ki in series [1] of 1690 nM. This compound also returned an IC50 at 4 days in series [2] of 9080 nM.

In the case of `CCC(C)(C)C[C@@H]1N2CN(c3ccc(C(=O)O)cc3OC)C(=O)[C@H]2[C@H](c2cccc(Cl)c2)[C@]12CNc1cc(Cl)ccc12`, the figures for the selectivity ratio in series [4] and in series [8] were 0.8 and 93, respectively. In addition, the Activity result in series [5], in [7], in series [9], in series [11], in [12] and in [13] was “Dose-Dependent Effect” throughout. Also, the Activity result in [15] was “Dose-Dependent Effect”. The outcome in the series on MOLM-13 [6] and with MOLM-13 [16] was Active. The IC50 in the series on A549 came out at 102 nM; with HCT-116, 28.5 nM; in the series on MOLM-13 [3], 5.5 nM; with HeLa, 11800 nM; in the series with SW480, 4920 nM. Moreover, the Ki in series [1] was determined as 1130 nM; in series [10], 1 nM. Moreover, the IC50 at 4 days in series [2] was 9530 nM. Also, the “Ratio IC50” value in series [14] is listed as 1.9.

For `COc1ccc(C2=N[C@@H](c3ccc(Cl)cc3)[C@@H](c3ccc(Cl)cc3)N2C(=O)N2CCNC(=O)C2)c(OC(C)C)c1` [NUTLIN-3], the IC50 came out at 2050 nM with A549, 199 nM in the series on MOLM-13 [3], 31400 nM with HeLa and 16400 nM in the series on SW480. The compound further had an IC50 at 4 days in series [2] of 26700 nM. In addition, in the series on MOLM-13 [17], the result was Active.
